One assay addresses MMP-2 (Homo sapiens (Human), UniProt P08253). The assay can be described thus: MMP-2 inhibition assay (fluorimetric, DQ gelatin substrate). The format is biochemical. The following applies: recombinant MMP-2 (CHO cells) 85 ng/mL, DQ gelatin 50 μg/mL, 2 hours at room temperature, pH 7.6. On the procedure: (§1) All the experiments were done in 1× reaction buffer, which was obtained from a 10× reaction buffer solution. The content of the 10× reaction buffer was: 50 mL of 0.5 M Tris-HCl, 1.5 M NaCl, 50 mM CaCl2 and 2 mM sodium azide at pH 7.6. To obtain the 1× reaction buffer 4 mL of the 10× reaction buffer were diluted in 36 mL of H2O.
Recombinant MMP-2 expressed in Chinese hamster ovary (CHO) cells was obtained from Merck-Millipore (catalog number PF023-5UG). DQ gelatin from pig skin fluorescein conjugated (MMP-2 substrate) was obtained from Life Technologies (catalog number E12055).
Preparation of the MMP-2 for the activity assay: MMP-2 was provided as a stock solution (0.1 mg/mL). The enzyme was diluted in 1× reaction buffer to a final concentration of 5 μg/mL.
(§2) Preparation of the DQ gelatin (substrate) solution for the activity assay: the solid form of the substrate was dissolved in water in order to obtain a stock solution of 1 mg/mL.
(§3) Procedure: The enzymatic assays were performed in 96-well microtiter plate, which allowed simultaneous monitoring of multiple reactions. For each reaction, 86.3 μL of 1× reaction buffer (pH 7.6), 1.7 μL of MMP-2 (final concentration 85 ng/mL) and 2 μL of the corresponding new compound were added to each well. A stock solution of new compound was prepared in DMSO (100 mM), and dilutions were prepared from this stock solution with DMSO. Finally, to the mixture contained in each well 10 μL of the substrate were added (final concentration 50 μg/mL). The reaction was incubated for 2 hours at room temperature in an orbital shaker (100 rpm).
(§4) The inhibitory activity of the new compound was measured fluorimetrically. The excitation and emission wavelengths were 483 and 525 nm, respectively.
(§5) Inhibitory activity at several concentration points (ranging from 100 pM to 200 μM MMP) were measured for each compound. The inhibitory activity on MMP-2 and MMP-9 was calculated according to eq 1. For each new compound, the fluorescence in the presence (a) and in the absence (b) of the corresponding MMP was measured. The maximum fluorescence (0% inhibitory activity) was obtained from a sample of the corresponding MMP in the absence of inhibitory compounds. To estimate the inhibitory potency of the novel compounds, activities were plotted against the log concentration of the compound, adjusting to a sigmoid curve using GraphPad Prism software, and the IC50 value, defined as the concentration of compound required to inhibit 50% of the corresponding MMP activity, was determined from resulting curve.
(§6) a corresponds to fluorescence intensity in the presence of substrate+test compound+MMP
(§7) b corresponds to the fluorescence intensity in the presence of substrate+tested compound
(§8) c corresponds to the fluorescence intensity in the presence of substrate+MMP
(§9) d corresponds to the fluorescence intensity of the presence of substrate

In another assay the target is MMP-9. The assay is described as follows: MMP-9 inhibition assay (fluorimetric, DQ gelatin substrate). In kind it is biochemical. Conditions: recombinant MMP-9 (Merck-Millipore for examples 1 to 9 and comparative examples; Enzo for examples 10 to 16), DQ gelatin 50 μg/mL, 4 hours at room temperature, pH 7.6. The method, then: as §1
Sequence of MMP-9 (P14780 107-707 limits assumed): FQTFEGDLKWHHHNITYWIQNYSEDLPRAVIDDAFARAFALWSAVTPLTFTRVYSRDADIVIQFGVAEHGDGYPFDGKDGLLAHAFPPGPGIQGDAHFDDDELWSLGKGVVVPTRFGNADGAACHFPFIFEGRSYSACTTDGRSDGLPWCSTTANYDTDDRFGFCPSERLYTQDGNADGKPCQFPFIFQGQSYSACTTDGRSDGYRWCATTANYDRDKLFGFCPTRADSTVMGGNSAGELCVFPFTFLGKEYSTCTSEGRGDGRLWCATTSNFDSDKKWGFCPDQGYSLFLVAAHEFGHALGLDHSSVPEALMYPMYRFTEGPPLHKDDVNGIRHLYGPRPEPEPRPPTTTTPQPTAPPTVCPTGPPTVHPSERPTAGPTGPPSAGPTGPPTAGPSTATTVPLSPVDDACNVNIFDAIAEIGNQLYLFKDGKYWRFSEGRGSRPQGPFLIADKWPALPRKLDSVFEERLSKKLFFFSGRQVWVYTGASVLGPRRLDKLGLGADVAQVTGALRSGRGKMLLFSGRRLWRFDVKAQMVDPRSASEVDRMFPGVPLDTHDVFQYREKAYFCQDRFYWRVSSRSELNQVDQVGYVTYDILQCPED
Recombinant MMP-9 expressed was obtained from Merck-Millipore (catalog number PF140-5UG, used in examples 1 to 9 and comparative examples) and Enzo (catalog number-SE360-0010, used in examples 10 to 16). DQ gelatin from pig skin fluorescein conjugated (MMP-9 substrate) was obtained from Life Technologies (catalog number E12055).
Preparation of the MMP-9 for the activity assay: MMP-9 was provided as a stock solution (0.1 mg/mL). The enzyme was diluted in 1× reaction buffer to a final concentration of 5 μg/mL.
as §2
as §3, with “reaction, 84.6” for “reaction, 86.3”, “7.6), […]” for “7.6), 1.7”, “of MMP-9” for “of MMP-2”, “for 4” for “for 2”
as §4, §5, §6, §7, §8, §9

Where a SMILES comes first, the peptide text is derived from it. [ ]: non-standard residue; d: D form. The star is where a group is joined. ξ: configuration not given here. NMeIle(3ξ) = CCC(C)[C@H](NC)C(=O)O; NMeQ = CN[C@@H](CCC(N)=O)C(=O)O; Ile(3ξ) = CCC(C)[C@H](N)C(=O)O; Hexanoyl = CCCCCC(=O)*; NHOH = ON*

Sequence of MMP-2 (P08253 110-660): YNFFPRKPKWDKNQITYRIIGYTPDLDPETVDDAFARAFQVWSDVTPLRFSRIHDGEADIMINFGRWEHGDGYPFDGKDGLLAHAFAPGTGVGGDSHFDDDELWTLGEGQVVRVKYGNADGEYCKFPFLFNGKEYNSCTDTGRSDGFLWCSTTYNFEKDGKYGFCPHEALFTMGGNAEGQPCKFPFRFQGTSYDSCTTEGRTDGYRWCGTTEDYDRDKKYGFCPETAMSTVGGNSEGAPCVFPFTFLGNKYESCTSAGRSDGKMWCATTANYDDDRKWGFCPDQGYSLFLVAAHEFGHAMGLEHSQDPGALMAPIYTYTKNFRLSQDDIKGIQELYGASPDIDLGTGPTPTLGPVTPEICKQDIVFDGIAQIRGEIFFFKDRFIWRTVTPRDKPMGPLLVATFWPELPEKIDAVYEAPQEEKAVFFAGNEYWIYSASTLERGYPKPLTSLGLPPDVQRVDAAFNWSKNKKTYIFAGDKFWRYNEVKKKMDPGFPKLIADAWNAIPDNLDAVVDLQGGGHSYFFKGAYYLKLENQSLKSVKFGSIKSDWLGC

On to `CCC(C)[C@H](NC(=O)[C@H](Cc1c[nH]c2ccccc12)NC(=O)[C@H](CCC(N)=O)NC(C)=O)C(=O)NO` (stereo partly drawn) [Example C18, (2 S)-2-acetamido-N-[(1S)-2-[[(1S)-1-(hydroxycarbamoyl)-2-methyl-butyl]amino]-1-(1H-indol-3-ylmethyl)-2-oxo-ethyl]pentanediamide, reference compound] (Ac-Gln-Trp-[Ile(3ξ)]-{NHOH}), for which the values for the IC50 at MMP-2 and on MMP-9 were 710 µM and 240 µM, respectively.

In the case of `CCC(C)[C@H](NC(=O)[C@@H]1CCCN1C(=O)[C@H](CCC(N)=O)NC(C)=O)C(=O)NO` (stereo partly drawn) [Example C19, (2S)-1-[(2S)-2-acetamido-5-amino-5-oxo-pentanoyl]-N-[(1S)-1-(hydroxycarbamoyl)-2-methyl-butyl]pyrrolidine-2-carboxamide, reference compound] (Ac-Gln-Pro-[Ile(3ξ)]-{NHOH}), the IC50 on MMP-2 and at MMP-9 was over 2000 µM in each case.

In the case of `CCCCCC(=O)N1CCC[C@H]1C(=O)N(C)[C@@H](CCC(N)=O)C(=O)N[C@@H](Cc1c[nH]c2ccccc12)C(=O)NO` [Example C23, (2S)-2-[[(SS)-1-hexanoylpyrrolidine-2-carbonyl)-methyl-amino]-N-[(1S)-2-(hydroxyamino)-1-(1H-indol-3-ylmethyl)-2-oxo-ethyl]pentanediamide, reference compound] (Hexanoyl-Pro-[NMeQ]-Trp-{NHOH}), the IC50 is over 2000 µM at MMP-2 and over 1000 µM on MMP-9.

On to `CCC(C)[C@@H](C(=O)N[C@@H](Cc1c[nH]c2ccccc12)C(=O)NO)N(C)C(=O)[C@@H]1CCCN1C(C)=O` (stereo partly drawn) [Example C21, (2S)-1-acetyl-N-[(1S)-1-[[(1S)-2-(hydroxyamino)-1-(1H-indol-3-ylmethyl)-2-oxo-ethyl]carbamoyl]-2-methyl-butyl]-N-methyl-pyrrolidine-2-carboxamide, reference compound] (Ac-Pro-[NMeIle(3ξ)]-Trp-{NHOH}), for which the IC50 on MMP-2 amounted to 110 µM; on MMP-9, 16 µM.

Broadly, the IC50 is the concentration at which inhibition is half-maximal.
